For 14 compounds, inhibition, melting point and EC50 results are on record in PMC6155626 (Molecules : A Journal of Synthetic Chemistry and Natural …, 2016).

The test system of data set [1] is Xanthomonas oryzae pv. oryzae. The data set can be described thus: microbe, parasite or virus in culture. Conditions: Xanthomonas oryzae; for inhibition at 100 µg/mL: read-out: Inhibition rate, X. oryzae, 100 μg/mL, average of three replicates; for inhibition at 200 µg/mL: read-out: Inhibition rate, X. oryzae, 200 μg/mL, average of three replicates. It is filed as cell-based.

The subject of the next data set is Ralstonia solanacearum. The data set can be described thus: microbe, parasite or virus in culture. It counts as cell-based. Conditions: Ralstonia solanacearum; for inhibition at 100 µg/mL / inhibition at 200 µg/mL: read-out: Inhibition rate; for EC50: R. solanacearum.
Data set [2] has as its system Xanthomonas axonopodis pv. citri. Description: microbe, parasite or virus in culture. It counts as cell-based. The conditions noted are these: Xanthomonas axonopodis; for inhibition at 100 µg/mL / inhibition at 200 µg/mL: read-out: Inhibition rate.

For orientation: melting point means the temperature, or range, at which the solid turns liquid. As a reminder, the EC50 is the concentration at which the effect is half-maximal.

Converted amounts (≈) assume the structure as drawn.

Consider `O=S(=O)(Cc1ccccc1)c1nnc(COc2ccc(Cl)cc2)o1` [Compound 5I-10, 2-(Benzylsulfonyl)-5-((4-chlorophenoxy)methyl)-1,3,4-oxadiazole], for which the melting point was 126 to 128 °C. Moreover, in data set [1], the inhibition at 100 µg/mL came out at 48% and the inhibition at 200 µg/mL worked out at 90%. Besides, in the data set on Ralstonia solanacearum, the inhibition at 100 µg/mL turned out to be 19% and the inhibition at 200 µg/mL is 24%. In data set [2], the inhibition at 100 µg/mL was found to be 62% and the inhibition at 200 µg/mL amounted to 74%.

Take `Cc1cc(Cl)ccc1OCc1nnc(S(=O)(=O)Cc2ccccc2)s1` [Compound 5II-12, 2-(Benzylsulfonyl)-5-((4-chloro-2-methylphenoxy)methyl)-1,3,4-thiadiazole]: the melting point is 125 to 126 °C. Moreover, in data set [1], the inhibition at 100 µg/mL came out at 0% and the inhibition at 200 µg/mL was 5%. Moreover, in the data set on Ralstonia solanacearum, the inhibition at 100 µg/mL was found to be 0% and the inhibition at 200 µg/mL came out at 0%. In data set [2], the inhibition at 100 µg/mL turned out to be 33% and the inhibition at 200 µg/mL amounted to 10%.

In turn, `CCS(=O)(=O)c1nnc(COc2ccc(Cl)cc2Cl)s1` [Compound 5II-7, 2-((2,4-Dichlorophenoxy)methyl)-5-(ethylsulfonyl)-1,3,4-thiadiazole] gave a melting point of 127 to 128 °C. Also, in data set [1], the inhibition at 100 µg/mL stood at 13% and the inhibition at 200 µg/mL came out at 20%. Also, in the data set on Ralstonia solanacearum, the inhibition at 100 µg/mL was 0% and the inhibition at 200 µg/mL came to 0%. Further, in data set [2], the inhibition at 100 µg/mL worked out at 6% and the inhibition at 200 µg/mL is 32%.

For `O=S(=O)(Cc1ccccc1)c1nnc(COc2ccccc2)o1` [Compound 5I-14, 2-(Benzylsulfonyl)-5-(phenoxymethyl)-1,3,4-oxadiazole], the melting point is 95 to 96 °C. Besides, in data set [1], the inhibition at 100 µg/mL was 78% and the inhibition at 200 µg/mL came to 95%. In addition, in the data set with Ralstonia solanacearum, the inhibition at 100 µg/mL was found to be 37% and the inhibition at 200 µg/mL is 69%. Besides, in data set [2], the inhibition at 100 µg/mL came out at 53% and the inhibition at 200 µg/mL was 76%.

Compound `CS(=O)(=O)c1nnc(COc2ccc(Br)cc2)s1` [Compound 5II-3, 2-((4-Bromophenoxy)methyl)-5-(methylsulfonyl)-1,3,4-thiadiazole] displayed a melting point of 114 to 115 °C. Further, in data set [1], the inhibition at 100 µg/mL stood at 28% and the inhibition at 200 µg/mL came to 30%. For the same compound, in the data set on Ralstonia solanacearum, the inhibition at 100 µg/mL stood at 7% and the inhibition at 200 µg/mL came out at 26%. In data set [2], the inhibition at 100 µg/mL was 18% and the inhibition at 200 µg/mL came to 25%.

As for `O=S(=O)(Cc1ccccc1)c1nnc(COc2ccc(Br)cc2)s1` [Compound 5II-10, 2-(Benzylsulfonyl)-5-((4-bromophenoxy)methyl)-1,3,4-thiadiazole], the melting point lay within 147 to 148 °C. In data set [1], the inhibition at 100 µg/mL was found to be 0% and the inhibition at 200 µg/mL amounted to 10%. For the same compound, in the data set with Ralstonia solanacearum, the inhibition at 100 µg/mL amounted to 1% and the inhibition at 200 µg/mL was 11%. In data set [2], the inhibition at 100 µg/mL came out at 8% and the inhibition at 200 µg/mL came out at 5%.

The compound `CS(=O)(=O)c1nnc(COc2ccc(Cl)cc2Cl)s1` [Compound 5II-4, 2-((2,4-Dichlorophenoxy)methyl)-5-(methylsulfonyl)-1,3,4-thiadiazole] returned a melting point of 160 to 162 °C. For the same compound, in data set [1], the inhibition at 100 µg/mL turned out to be 18% and the inhibition at 200 µg/mL was determined as 16%. In the data set on Ralstonia solanacearum, the inhibition at 100 µg/mL came out at 15% and the inhibition at 200 µg/mL is 18%. In data set [2], the inhibition at 100 µg/mL came out at 20% and the inhibition at 200 µg/mL worked out at 23%.

As for `CCS(=O)(=O)c1nnc(COc2ccc(Cl)cc2Cl)o1` [Compound 5I-8, 2-((2,4-Dichlorophenoxy)methyl)-5-(ethylsulfonyl)-1,3,4-oxadiazole], the inhibition at 100 µg/mL in data set [1] was 87%; in the data set on Ralstonia solanacearum it was 43%; in data set [2], 36%. Also, the inhibition at 200 µg/mL came out at 100% in data set [1], 97% in the data set with Ralstonia solanacearum and 62% in data set [2].

Take `Cc1cc(Cl)ccc1OCc1nnc(S(C)(=O)=O)s1` [Compound 5II-5, 2-((4-Chloro-2-methylphenoxy)methyl)-5-(methylsulfonyl)-1,3,4-thiadiazole]: the melting point was in the range of 160 to 161 °C. For the same compound, in data set [1], the inhibition at 100 µg/mL worked out at 16% and the inhibition at 200 µg/mL is 42%. Further, in the data set on Ralstonia solanacearum, the inhibition at 100 µg/mL is 8% and the inhibition at 200 µg/mL stood at 9%. Moreover, in data set [2], the inhibition at 100 µg/mL worked out at 24% and the inhibition at 200 µg/mL worked out at 25%.

In the case of `O=S(=O)(Cc1ccccc1)c1nnc(COc2ccc(Cl)cc2)s1` [Compound 5II-9, 2-(Benzylsulfonyl)-5-((4-chlorophenoxy)methyl)-1,3,4-thiadiazole], the melting point was 140 to 141 °C. Besides, in data set [1], the inhibition at 100 µg/mL is 14% and the inhibition at 200 µg/mL came out at 19%. Besides, in the data set with Ralstonia solanacearum, the inhibition at 100 µg/mL was 18% and the inhibition at 200 µg/mL was found to be 17%. Besides, in data set [2], the inhibition at 100 µg/mL was found to be 23% and the inhibition at 200 µg/mL is 14%.

`CCS(=O)(=O)c1nnc(COc2ccc(F)cc2)s1` [Compound 5II-6, 2-(Ethylsulfonyl)-5-((4-fluorophenoxy)methyl)-1,3,4-thiadiazole] displayed a melting point of 89 to 90 °C. Moreover, in data set [1], the inhibition at 100 µg/mL is 55% and the inhibition at 200 µg/mL is 65%. Moreover, in the data set with Ralstonia solanacearum, the inhibition at 100 µg/mL amounted to 12% and the inhibition at 200 µg/mL came out at 7%. In data set [2], the inhibition at 100 µg/mL was 18% and the inhibition at 200 µg/mL is 15%.

For `CCS(=O)(=O)c1nnc(COc2ccc(F)cc2)o1` [Compound 5I-7, 2-(Ethylsulfonyl)-5-((4-fluorophenoxy)methyl)-1,3,4-oxadiazole], in data set [1], the EC50 is 0.52 ± 0.16 µg/mL (≈ 1.82 µM), the inhibition at 100 µg/mL was 100% and the inhibition at 200 µg/mL came out at 100%. Moreover, in the data set on Ralstonia solanacearum, the response was half-maximal at 7.75 ± 1.01 µg/mL (≈ 27.1 µM) (EC50), the inhibition at 100 µg/mL was 99% and the inhibition at 200 µg/mL stood at 100%. For the same compound, in data set [2], the concentration for a half-maximal effect (EC50) amounted to 52.2 ± 2.14 µg/mL (≈ 182 µM), the inhibition at 100 µg/mL came out at 53% and the inhibition at 200 µg/mL was found to be 65%.

For the compound `Cc1cc(Cl)ccc1OCc1nnc(S(C)(=O)=O)o1` [Compound 5I-5, 2-((4-Chloro-2-methylphenoxy)methyl)-5-(methylsulfonyl)-1,3,4-oxadiazole], in data set [1], the EC50 came out at 1.67 ± 0.16 µg/mL (≈ 5.52 µM), the inhibition at 100 µg/mL was 100% and the inhibition at 200 µg/mL turned out to be 100%. In the data set with Ralstonia solanacearum, a half-maximal effect (EC50) was put at 14.9 ± 1.27 µg/mL (≈ 49.3 µM), the inhibition at 100 µg/mL is 100% and the inhibition at 200 µg/mL was 100%. Moreover, in data set [2], it took 96.8 ± 5.78 µg/mL (≈ 320 µM) to reach a half-maximal effect (EC50), the inhibition at 100 µg/mL was 54% and the inhibition at 200 µg/mL is 100%.

Consider `CS(=O)(=O)c1nnc(COc2ccccc2)o1` [Compound 5I-6, 2-(Methylsulfonyl)-5-(phenoxymethyl)-1,3,4-oxadiazole], for which the 50% effective concentration (EC50) was 1.86 ± 0.23 µg/mL (≈ 7.32 µM) in data set [1], 13.6 ± 2.12 µg/mL (≈ 53.3 µM) in the data set on Ralstonia solanacearum and 85 ± 4.32 µg/mL (≈ 334 µM) in data set [2]. The inhibition at 100 µg/mL came out at 100% in data set [1], 100% in the data set on Ralstonia solanacearum and 57% in data set [2]. The inhibition at 200 µg/mL in data set [1] stood at 100%; in the data set with Ralstonia solanacearum, 100%; in data set [2], 88%.
